Measured values as given in patent publication US11932624B2, “MDM2 degraders and uses thereof” (Kymera Therapeutics, Inc., priority 2020, dated 2024).
pIC50: −log10 of the molar value.

Tested on: RS411 cells
Assay: Cell Viability CTG Assay (CellTiter Glo) in RS411 cells
Format: cell-based
Conditions: Homo sapiens, RS4-11, 24 h, duration 1 day
Experimental: Example 23. Cell Viability CTG Assay
Day 0: Compounds or DMSO 60 nL were stamped to the cell plate as the platemap. RS411 cells were centrifuged at 800 rpm for 5 min, suspended with culture medium, and counted with Countess (Invitrogen). The cell density was adjusted to the recommend information. 30 μL of cell solution (1000 cells/well) was added to the assay plate as the platemap and 30 uL of media was added to column 2 and column 23 as the platemap. The plate was spun down briefly. The final concentration of the compounds started at 10 μM (3 fold dilution and 11 doses) and final DMSO concentration was 0.2%. The plate was spun down briefly and incubated at 37° C., 5% CO2 for 1-4 days.
30 μL CellTiter Glo reagent was added to each well and the plate was centrifuged at 1000 rpm for 30 sec. The plate was shaken for 1 min and centrifuged at 1000 rpm for 30 sec. The plate was incubated at RT for 10 min to stabilize the luminescent signal and the luminescence was read by EnVision.
The letter codes for IC50 indicate the concentration of compound required to affect 50% of cells: A (<0.05 μM), B (0.05-0.1 μM), C (0.1-0.5 μM), D (0.5-1.0 μM), and E (>1.0 μM).

Row | pIC50 | SMILES
1 | > 7.30 | CN(C(=O)c1ccc(NC(=O)[C@@H]2NC3(CCCCC3)[C@@]3(C(=O)Nc4cc(Cl)ccc43)[C@H]2c2cccc(Cl)c2F)cc1)C1CCN(Cc2cccc3c2n(C)c(=O)n3C2CCC(=O)NC2=O)CC1 (stereo partly shown) [I-63]
2 | > 7.30 | Cn1c(=O)n(C2CCC(=O)NC2=O)c2cccc(CCCOC3CCN(C(=O)c4ccc(NC(=O)[C@@H]5NC6(CCCCC6)[C@@]6(C(=O)Nc7cc(Cl)ccc76)[C@H]5c5cccc(Cl)c5F)cc4)CC3)c21 (stereo partly shown) [I-64]
3 | > 7.30 | Cn1c(=O)n(C2CCC(=O)NC2=O)c2cccc(N3CCC4(CC3)CN(C(=O)c3ccc(NC(=O)[C@@H]5NC6(CCCCC6)[C@@]6(C(=O)Nc7cc(Cl)ccc76)[C@H]5c5cccc(Cl)c5F)cc3)C4)c21 (stereo partly shown) [I-65]
4 | > 7.30 | CN(CCCCCc1ccc2c(c1)n(C)c(=O)n2C1CCC(=O)NC1=O)C[C@H]1CC[C@H](NC(=O)[C@@H]2NC3(CCC(C)(C)CC3)[C@@]3(C(=O)Nc4cc(Cl)ccc43)[C@H]2c2cccc(Cl)c2F)CC1 (stereo partly shown) [I-66]
5 | > 7.30 | Cn1c(=O)n(C2CCC(=O)NC2=O)c2ccc(CCCCCNC(=O)[C@H]3CC[C@H](NC(=O)[C@@H]4NC5(CCCCC5)[C@@]5(C(=O)Nc6cc(Cl)ccc65)[C@H]4c4cccc(Cl)c4F)CC3)cc21 (stereo partly drawn) [I-67, (3′R,4'S,5′R)-6″-chloro-4′-(3-chloro-2-fluorophenyl)-N-((1r,4R)-4-((5-(1-(2,6-dioxopiperidin-3-yl)-3-methyl-2-oxo-2,3-dihydro-1H-benzo[d]imidazol-5-yl)pentyl)carbamoyl)cyclohexyl)-2″-oxodispiro[cyclohexane-1,2′-pyrrolidine-3′,3″-indoline]-5′-carboxamide]
6 | > 7.30 | Cn1c(=O)n(C2CCC(=O)NC2=O)c2ccc(C#CC3CCN(C[C@H]4CC[C@H](NC(=O)[C@@H]5NC6(CCC(C)(C)CC6)[C@@]6(C(=O)Nc7cc(Cl)ccc76)[C@H]5c5cccc(Cl)c5F)CC4)CC3)cc21 (stereo partly shown) [I-68]
7 | > 7.30 | Cn1c(=O)n(C2CCC(=O)NC2=O)c2ccc(C#CC3CCN(C(=O)[C@H]4CC[C@H](NC(=O)[C@@H]5NC6(CCCCC6)[C@@]6(C(=O)Nc7cc(Cl)ccc76)[C@H]5c5cccc(Cl)c5F)CC4)CC3)cc21 (stereo partly shown) [I-69]
8 | > 7.30 | Cn1c(=O)n(C2CCC(=O)NC2=O)c2ccc(C#CC3CCN(C[C@H]4CC[C@H](NC(=O)[C@@H]5NC6(CCCCC6)[C@@]6(C(=O)Nc7cc(Cl)ccc76)[C@H]5c5cccc(Cl)c5F)CC4)CC3)cc21 (stereo partly shown) [I-70]
9 | > 7.30 | Cn1c(=O)n(C2CCC(=O)NC2=O)c2ccc(C#CC3CCN(C(=O)[C@H]4CC[C@H](NC(=O)[C@@H]5NC6(CCC(C)(C)CC6)[C@@]6(C(=O)Nc7cc(Cl)ccc76)[C@H]5c5cccc(Cl)c5F)CC4)CC3)cc21 (stereo partly shown) [I-71]
10 | > 7.30 | Cn1c(=O)n(C2CCC(=O)NC2=O)c2ccc(CCCCCNC(=O)[C@H]3CC[C@H](NC(=O)[C@@H]4NC5(CCC(C)(C)CC5)[C@@]5(C(=O)Nc6cc(Cl)ccc65)[C@H]4c4cccc(Cl)c4F)CC3)cc21 (stereo partly shown) [I-72]
11 | > 7.30 | Cn1c(=O)n(C2CCC(=O)NC2=O)c2ccc(CCCCCNC(=O)c3ccc(NC(=O)[C@@H]4NC5(CCC(C)(C)CC5)[C@@]5(C(=O)Nc6cc(Cl)ccc65)[C@H]4c4cccc(Cl)c4F)cc3)cc21 (stereo partly drawn) [I-74, (3′R,4'S,5′R)-6″-chloro-4′-(3-chloro-2-fluorophenyl)-N-(4-((5-(1-(2,6-dioxopiperidin-3-yl)-3-methyl-2-oxo-2,3-dihydro-1H-benzo[d]imidazol-5-yl)pentyl)carbamoyl)phenyl)-4,4-dimethyl-2″-oxodispiro[cyclohexane-1,2′-pyrrolidine-3′,3″-indoline]-5′-carboxamide]
12 | > 7.30 | Cn1c(=O)n(C2CCC(=O)NC2=O)c2ccc(C#CC3CCN(C(=O)C45CCC(NC(=O)[C@@H]6NC7(CCCCC7)[C@@]7(C(=O)Nc8cc(Cl)ccc87)[C@H]6c6cccc(Cl)c6F)(CC4)CC5)CC3)cc21 (stereo partly shown) [I-75]
13 | 6.30 to 7.00 | Cn1c(=O)n(C2CCC(=O)NC2=O)c2ccc(C#CC3CCN(C(=O)c4ccc(NC(=O)[C@@H]5NC6(CCC(C)(C)CC6)[C@@]6(C(=O)Nc7cc(Cl)ccc76)[C@H]5c5cccc(Cl)c5F)cc4)CC3)cc21 (stereo partly shown) [I-76]
14 | > 7.30 | CN1[C@@H](C(=O)Nc2ccc(CN3CCC(CCc4ccc5c(c4)n(C)c(=O)n5C4CCC(=O)NC4=O)CC3)cc2)[C@H](c2cccc(Cl)c2F)[C@]2(C(=O)Nc3cc(Cl)ccc32)C12CCCCC2 (stereo partly shown) [I-77]
15 | > 7.30 | Cn1c(=O)n(C2CCC(=O)NC2=O)c2ccc(CCCCCNC(=O)c3cccc(NC(=O)[C@@H]4NC5(CCCCC5)[C@@]5(C(=O)Nc6cc(Cl)ccc65)[C@H]4c4cccc(Cl)c4F)c3)cc21 (stereo partly shown) [I-78]
16 | > 7.30 | Cn1c(=O)n(C2CCC(=O)NC2=O)c2ccc(C#CC3CCN(Cc4ccc(NC(=O)[C@@H]5NC6(CCCCC6)[C@@]6(C(=O)Nc7cc(Cl)ccc76)[C@H]5c5cccc(Cl)c5F)cc4)CC3)cc21 (stereo partly shown) [I-79]
17 | > 7.30 | CN1[C@@H](C(=O)Nc2ccc(C(=O)N3CCC(C#Cc4ccc5c(c4)n(C)c(=O)n5C4CCC(=O)NC4=O)CC3)cc2)[C@H](c2cccc(Cl)c2F)[C@]2(C(=O)Nc3cc(Cl)ccc32)C12CCCCC2 (stereo partly shown) [I-80]
18 | > 7.30 | CN1[C@@H](C(=O)Nc2ccc(C(=O)NCCCCCc3ccc4c(c3)n(C)c(=O)n4C3CCC(=O)NC3=O)cc2)[C@H](c2cccc(Cl)c2F)[C@]2(C(=O)Nc3cc(Cl)ccc32)C12CCC(C)(C)CC2 (stereo partly shown) [I-81]
19 | > 7.30 | Cn1c(=O)n(C2CCC(=O)NC2=O)c2ccc(C#CCCCNC(=O)[C@H]3CC[C@H](NC(=O)[C@@H]4NC5(CCCCC5)[C@@]5(C(=O)Nc6cc(Cl)ccc65)[C@H]4c4cccc(Cl)c4F)CC3)cc21 (stereo partly shown) [I-82]
20 | > 7.30 | Cn1c(=O)n(C2CCC(=O)NC2=O)c2ccc(C#CC3CCN(C(=O)[C@H]4CC[C@H](NC(=O)[C@@H]5NC6(CCC(C)(C)CC6)[C@@]6(C(=O)Nc7cc(Cl)ccc76)[C@H]5c5cccc(Cl)c5F)CO4)CC3)cc21 (stereo partly shown) [I-83]
21 | > 7.30 | COc1cc2c(cc1OC(C)C)C(c1ccc(Cl)cc1)N(c1ccc(N(C)CC3CCN(CCCCCCc4cccc5c4n(C)c(=O)n5C4CCC(=O)NC4=O)CC3)cc1)C(=O)C2 (stereo not shown) [I-84, 3-[4-[6-[4-[[4-[1-(4-Chlorophenyl)-7-isopropoxy-6-methoxy-3-oxo-1,4-dihydroisoquinolin-2-yl]-N-methylanilino]methyl]-1-piperidyl]hexyl]-3-methyl-2-oxo-benzimidazol-1-yl]piperidine-2,6-dione]
22 | > 7.30 | COc1cc2c(cc1OC(C)C)C(c1ccc(Cl)cc1)N(c1ccc(N(C)C[C@H]3CC[C@H](N(C)CCCCCc4ccc5c(c4)n(C)c(=O)n5C4CCC(=O)NC4=O)CC3)cc1)C(=O)C2 (stereo partly shown) [I-85]
23 | > 7.30 | COc1cc2c(cc1OC(C)C)C(c1ccc(Cl)cc1)N(c1ccc(N(C)CC3CCN(CCCCCCc4ccc5c(c4)n(C)c(=O)n5C4CCC(=O)NC4=O)CC3)cc1)C(=O)C2 (stereo not shown) [I-86]
24 | > 7.30 | COc1cc2c(cc1OC(C)C)C(c1ccc(Cl)cc1)N(c1ccc(N(C)C[C@H]3CC[C@H](N(C)CCCCCc4cccc5c4n(C)c(=O)n5C4CCC(=O)NC4=O)CC3)cc1)C(=O)C2 (stereo partly shown) [I-87]
25 | > 7.30 | Cn1c(=O)n(C2CCC(=O)NC2=O)c2ccc(C#CC3CN(C(=O)[C@H]4C[C@H](NC(=O)[C@@H]5NC6(CCCCC6)[C@@]6(C(=O)Nc7cc(Cl)ccc76)[C@H]5c5cccc(Cl)c5F)C4)C3)cc21 (stereo partly drawn) [I-89, (3′R,4'S,5′R)-6″-chloro-4′-(3-chloro-2-fluorophenyl)-N-((1r,3R)-3-(3-((1-(2,6-dioxopiperidin-3-yl)-3-methyl-2-oxo-2,3-dihydro-1H-benzo[d]imidazol-5-yl)ethynyl)azetidine-1-carbonyl)cyclobutyl)-2″-oxodispiro[cyclohexane-1,2′-pyrrolidine-3′,3″-indoline]-5′-carboxamide]
26 | > 7.30 | COc1cc2c(cc1OC(C)C)C(c1ccc(Cl)cc1)N(c1ccc(N(C)C[C@H]3CC[C@H](NCC(=O)NCCCCCc4ccc5c(c4)n(C)c(=O)n5C4CCC(=O)NC4=O)CC3)cc1)C(=O)C2 (stereo partly shown) [I-92, 2-[[4-[[4-[1-(4-Chlorophenyl)-7-isopropoxy-6-methoxy-3-oxo-1,4-dihydroisoquinolin-2-yl]-N-methyl-anilino]methyl]cyclohexyl]amino]-N-[5-[1-(2,6-dioxo-3-piperidyl)-3-methyl-2-oxo-benzimidazol-5-yl]pentyl]acetamide]
27 | > 7.30 | CN(CCCCCc1ccc2c(c1)n(C)c(=O)n2C1CCC(=O)NC1=O)C[C@H]1CC[C@H](NC(=O)[C@@H]2NC3(CCCCC3)[C@@]3(C(=O)Nc4cc(Cl)ccc43)[C@H]2c2cccc(Cl)c2F)CC1 (stereo partly shown) [I-93]
28 | > 7.30 | Cn1c(=O)n(C2CCC(=O)NC2=O)c2ccc(C(=O)CC3CCN(C(=O)[C@H]4CC[C@H](NC(=O)[C@@H]5NC6(CCCCC6)[C@@]6(C(=O)Nc7cc(Cl)ccc76)[C@H]5c5cccc(Cl)c5F)CC4)CC3)cc21 (stereo partly shown) [I-94]
29 | < 6.00 | CN(C(=O)[C@@H]1NC2(CCCCC2)[C@@]2(C(=O)Nc3cc(Cl)ccc32)[C@H]1c1cccc(Cl)c1F)c1ccc(C(=O)NCCCCCc2ccc3c(c2)n(C)c(=O)n3C2CCC(=O)NC2=O)cc1 (stereo partly shown) [I-96]
30 | > 7.30 | Cn1c(=O)n(C2CCC(=O)NC2=O)c2ccc(CCCCCNC(=O)c3ccc(NC(=O)[C@@H]4NC5(CCCCC5)[C@@]5(C(=O)Nc6cc(Cl)ccc65)[C@H]4c4cccc(Cl)c4F)cc3)cc21 (stereo partly shown) [I-97]

Row | SMILES | pIC50
31 | CCCCCC1N(c2ccc(C(=O)O)cc2OC)C(=O)[C@H]2[C@H](c3cccc(Cl)c3F)[C@@](C#N)(c3ccc(Cl)cc3F)[C@H](CC(C)(C)C)N12 (stereo partly drawn) [I-91, 4-[(5S,6R,7S,7aR)-7-(3-chloro-2-fluoro-phenyl)-6-(4-chloro-2-fluoro-phenyl)-6-cyano-5-(2,2-dimethylpropyl)-1-oxo-3-pentyl-3,5,7,7a-tetrahydropyrrolo[1,2-c]imidazol-2-yl]-3-methoxy-benzoic acid] | < 6.00
